The values that follow come from US20230339890A1, “AMINO ALCOHOL COMPOUNDS AND USES THEREOF” (Kineta, Inc., priority 2020, published 2023).

The target in the assay is Recombinant human CYP51A1 (lanosterol-14a-demethylase) (Homo sapiens (Human), UniProt Q16850). Nature of the assay: Inhibition of CYP51A1, fluorescent substrate BOMCC. The conditions noted are these: recombinant human CYP51A1 coexpressed with CYP reductase in bacterial membranes, 8-point concentration-response, read-out: CYP51 IC50. It counts as biochemical. The source says:
Method: Recombinant human CYP51A1 (lanosterol-14a-demethylase) enzyme was coexpressed with CYP reductase in bacterial membranes and the fluorescent substrate BOMCC (a nonnatural substrate that causes increases in fluorescence upon CYP51A1-dependent demethylation) was used to obtain 8-point dose concentration-response curves for each compound.

Sequence of Recombinant human CYP51A1 (lanosterol-14a-demethylase) (Q16850 whole entry): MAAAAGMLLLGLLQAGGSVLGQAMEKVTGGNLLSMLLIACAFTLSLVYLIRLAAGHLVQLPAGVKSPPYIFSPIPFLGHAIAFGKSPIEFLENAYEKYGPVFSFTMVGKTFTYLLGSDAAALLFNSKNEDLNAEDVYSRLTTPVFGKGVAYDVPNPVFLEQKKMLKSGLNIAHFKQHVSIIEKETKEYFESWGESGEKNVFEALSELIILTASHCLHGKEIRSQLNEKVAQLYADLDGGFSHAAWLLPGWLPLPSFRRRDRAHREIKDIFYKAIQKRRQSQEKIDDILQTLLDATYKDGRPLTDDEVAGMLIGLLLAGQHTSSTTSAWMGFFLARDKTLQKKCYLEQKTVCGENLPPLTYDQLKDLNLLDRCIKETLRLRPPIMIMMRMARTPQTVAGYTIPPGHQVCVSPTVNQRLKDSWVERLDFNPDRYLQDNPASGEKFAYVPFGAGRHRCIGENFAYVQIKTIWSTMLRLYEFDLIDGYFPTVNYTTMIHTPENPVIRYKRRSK

One may read the IC50 as the concentration that gives 50% inhibition. `CCCN(CC(O)c1cccnn1)C(=O)Cc1ccc(Cl)c(Cl)c1` (single isomer, unassigned) [compound 35, 2-(3,4-dichlorophenyl)-N-[2-hydroxy-2-pyridazin-3-yl-ethyl]-N-propyl-acetamide]: the IC50 lay in the range of 100 to 1000 nM.
On to `CCCN(CC(O)c1cccnn1)C(=O)Cc1ccc(Cl)c(Cl)c1` (single isomer, unassigned) [compound 36, 2-(3,4-dichlorophenyl)-N-[2-hydroxy-2-pyridazin-3-yl-ethyl]-N-propyl-acetamide], for which the IC50 is more than 1000 nM.
On to `CCCN(CC(O)c1cnccn1)C(=O)C1Cc2cc(Cl)c(Cl)cc2C1` (single isomer, unassigned) [compound 41, 5,6-dichloro-N-(2-hydroxy-2-pyrazin-2-yl-ethyl)-N-propyl-indane-2-carboxamide], for which the IC50 is more than 1000 nM.
For `CCCN(CC(O)c1cnccn1)C(=O)C1Cc2cc(Cl)c(Cl)cc2C1` (single isomer, unassigned) [compound 42, 5,6-dichloro-N-(2-hydroxy-2-pyrazin-2-yl-ethyl)-N-propyl-indane-2-carboxamide], the IC50 was not above 100 nM.
With `CCCN(CC(O)c1cccnn1)C(=O)Cc1ccc(C#N)c(Cl)c1` (single isomer, unassigned) [compound 53, 2-(3-chloro-4-cyanophenyl)-N-(2-hydroxy-2-pyridazin-3-yl-ethyl)-N-propyl-acetamide] the figure was 100 to 1000 nM; with `CCCN(CC(O)c1cccnn1)C(=O)Cc1ccc(C#N)c(Cl)c1` (single isomer, unassigned) [compound 54, 2-(3-chloro-4-cyanophenyl)-N-(2-hydroxy-2-pyridazin-3-yl-ethyl)-N-propyl-acetamide], more than 1000 nM; with `O=C(Cc1ccc(C(F)(F)F)nc1)N(CC(O)c1cccnn1)C1CCC1` (single isomer, unassigned) [compound 61, N-cyclobutyl-N-(2-hydroxy-2-pyridazin-3-yl-ethyl)-2-[6-(trifluoromethyl)-3-pyridyl]acetamide], 100 to 1000 nM.
As for `O=C(Cc1ccc(C(F)(F)F)nc1)N(CC(O)c1cccnn1)C1CCC1` (single isomer, unassigned) [compound 62, N-cyclobutyl-N-(2-hydroxy-2-pyridazin-3-yl-ethyl)-2-[6-(trifluoromethyl)-3-pyridyl]acetamide], the IC50 is more than 1000 nM.
As to `CCCN(CC(O)c1cccnn1)C(=O)Cc1ccc(C(F)(F)F)nc1` (single isomer, unassigned) [compound 68, N-[2-hydroxy-2-pyridazin-3-yl-ethyl]-N-propyl-2-[6-(trifluoromethyl)-3-pyridyl]acetamide], the IC50 is more than 1000 nM.
Turning to `CCCN(CC(O)c1cccnn1)C(=O)Cc1ccc(C(F)(F)F)nc1` (single isomer, unassigned) [compound 69, N-[2-hydroxy-2-pyridazin-3-yl-ethyl]-N-propyl-2-[6-(trifluoromethyl)-3-pyridyl]acetamide], the IC50 is not above 100 nM.
With `Cc1ccncc1C(O)CN(CC1COC1)C(=O)Cc1ccc(C(F)(F)F)nc1` (single isomer, unassigned) [compound 88, N-[2-hydroxy-2-(4-methyl-3-pyridyl)ethyl] -N-(oxetan-3-ylmethyl)-2-[6-(trifluoromethyl)-3-pyridyl]acetamide] the figure was not above 100 nM; with `CCCN(CC(O)c1cccnc1)C(=O)Cc1ccc(Cl)c(Cl)c1` (stereo not drawn) [compound 1, 2-(3,4-dichlorophenyl)-N-[2-hydroxy-2-(3-pyridyl)ethyl]-N-propyl-acetamide], not above 100 nM; with `CCCN(CC(O)c1cccnc1)C(=O)Cc1ccc2ccccc2c1` (stereo not drawn) [compound 2, N-[2-hydroxy-2-(3-pyridyl)ethyl]-2-(2-naphthyl)-N-propyl-acetamide], not above 100 nM.
Turning to `CCC(=O)N(CCc1ccc2ccccc2c1)CC(O)c1cccnc1` (stereo not drawn) [compound 3], the IC50 was 100 to 1000 nM.
With `CCC(=O)N(CCc1ccc(Cl)c(Cl)c1)CC(O)c1cccnc1` (stereo not drawn) [compound 4] the figure was 100 to 1000 nM; with `CCCN(CC(O)c1cccnc1)C(=O)Cc1ccc(OC)c(OC)c1` (stereo not drawn) [compound 5, 2-(3,4-dimethoxyphenyl)-N-[2-hydroxy-2-(3-pyridyl)ethyl]-N-propyl-acetamide], more than 1000 nM.
For the compound `CCCN(C[C@H](O)c1cccnc1)C(=O)Cc1ccc(Cl)c(Cl)c1` [compound 6, 2-(3,4-dichlorophenyl)-N-[(2R)-2-hydroxy-2-(3-pyridyl)ethyl]-N-propyl-acetamide], the IC50 was not above 100 nM.
With `CCCN(C[C@@H](O)c1cccnc1)C(=O)Cc1ccc2ccccc2c1` [compound 7, N-[(2S)-2-hydroxy-2-(3-pyridyl)ethyl]-2-(2-naphthyl)-N-propyl-acetamide], the IC50 was not above 100 nM.
Regarding `CCCN(C[C@@H](O)c1cccnc1)C(=O)Cc1ccc(Cl)c(Cl)c1` [compound 8, 2-(3,4-dichlorophenyl)-N-[(2S)-2-hydroxy-2-(3-pyridyl)ethyl]-N-propyl-acetamide], the IC50 was not above 100 nM.
On to `CC1(N(CC(O)c2cccnc2)C(=O)Cc2ccc(Cl)c(Cl)c2)CC1` (stereo not drawn) [compound 9, 2-(3,4-dichlorophenyl)-N-[2-hydroxy-2-(3-pyridyl)ethyl]-N-(1-methylcyclopropyl)a cetamide], for which the IC50 lay within 100 to 1000 nM.
With `CCCN(CC(O)c1cccnc1)S(=O)(=O)Cc1ccc(Cl)c(Cl)c1` (stereo not drawn) [compound 10, 1-(3,4-dichlorophenyl)-N-[2-hydroxy-2-(3-pyridyl)ethyl]-N-propyl-methanesulfonamide], the 50% inhibitory concentration (IC50) was more than 1000 nM.
For `CCCN(C[C@@H](O)c1cccnc1)C(=O)C1Cc2cc(Cl)c(Cl)cc2C1` [compound 11], the IC50 was not above 100 nM.
`CCCN(C[C@@H](O)c1cccnc1)C(=O)Cc1ccc(OC)c(Cl)c1` [compound 12, 2-(3-chloro-4-methoxy-phenyl)-N-[(2S)-2-hydroxy-2-(3-pyridyl)ethyl]-N-propyl-acetamide]: the IC50 was 100 to 1000 nM.
Take `CCCN(CC(O)c1cncnc1)C(=O)Cc1ccc(Cl)c(Cl)c1` (stereo not drawn) [compound 13, 2-(3,4-dichlorophenyl)-N-(2-hydroxy-2-pyrimidin-5-yl-ethyl)-N-propyl-acetamide]: the IC50 is more than 1000 nM.
For `CCCN(C[C@@H](O)c1cccnc1)C(=O)Cc1ccc(Cl)cn1` [compound 14, 2-(5-chloro-2-pyridyl)-N-[(2S)-2-hydroxy-2-(3-pyridyl)ethyl]-N-propyl-acetamide], the IC50 is more than 1000 nM.
For the compound `CCCN(C[C@@H](O)c1cccnc1)C(=O)Cc1ccc(C)nc1` [compound 15, N-[(2S)-2-hydroxy-2-(3-pyridyl)ethyl]-2-(6-methyl-3-pyridyl)-N-propyl-acetamide], the IC50 was more than 1000 nM.
Consider `CCCN(C[C@@H](O)c1cccnc1)C(=O)Cc1ccc(C)c(Cl)c1` [compound 16, 2-(3-chloro-4-methyl-phenyl)-N-[(2S)-2-hydroxy-2-(3-pyridyl)ethyl]-N-propyl-acetamide], for which the IC50 was not above 100 nM.
For `CCCN(C[C@@H](O)c1cccnc1)C(=O)Cc1ccc(C(F)(F)F)nc1` [compound 17, N-[(2S)-2-hydroxy-2-(3-pyridyl)ethyl]-N-propyl-2-[6-(trifluoromethyl)-3-pyridyl]acetamide], the IC50 was not above 100 nM.
In the case of `CC(C)N(C[C@@H](O)c1cccnc1)C(=O)Cc1ccc(Cl)c(Cl)c1` [compound 18, 2-(3,4-dichlorophenyl) -N-[(2S)-2-hydroxy-2-(3-pyridyl)ethyl]-N-isopropyl-acetamide], the IC50 is not above 100 nM.
On to `CCCN(CC(O)c1ccnnc1)C(=O)Cc1ccc(Cl)c(Cl)c1` (stereo not drawn) [compound 19], for which the IC50 is more than 1000 nM.
Take `CCN(C[C@@H](O)c1cccnc1)C(=O)Cc1ccc(Cl)c(Cl)c1` [compound 20, 2-(3,4-dichlorophenyl) -N-ethyl-N-[(2S)-2-hydroxy-2-(3-pyridyl)ethyl]ac etamide]: the IC50 lay in the range of 100 to 1000 nM.
In the case of `CCCN(C[C@@H](O)c1cccnc1)C(=O)Cc1ccc(OC(F)(F)F)c(Cl)c1` [compound 21, 2-[3-chloro-4-(trifluoromethoxy)phenyl]-N-[(2S)-2-hydroxy-2-(3-pyridyl)ethyl]-N-propyl-acetamide], the IC50 is not above 100 nM.
In the case of `CCC(=O)N(C[C@@H](O)c1cccnc1)C1Cc2cc(Cl)c(Cl)cc2C1` [compound 22, N-(5,6-dichloroindan-2-yl)-N-[(2S)-2-hydroxy-2-(3-pyridyl)ethyl]propanamide], the IC50 was in the range of 100 to 1000 nM.
For the compound `CCC(=O)N(C[C@H](O)c1cccnc1)C1Cc2cc(Cl)c(Cl)cc2C1` [compound 23, N-(5,6-dichloroindan-2-yl)-N-[(2R)-2-hydroxy-2-(3-pyridyl)ethyl]propanamide], the IC50 was not above 100 nM.
On to `CCCN(C[C@@H](O)c1cccnc1)C(=O)Cc1ccc(Cl)c(C#N)c1` [compound 24, 2-(4-chloro-3-cyano-phenyl)-N-[(2S)-2-hydroxy-2-(3-pyridyl)ethyl]-N-propyl-acetamide], for which the IC50 is 100 to 1000 nM.
`O=C(Cc1ccc(Cl)c(Cl)c1)N(CC1COC1)C[C@@H](O)c1cccnc1` [compound 25, 2-(3,4-dichlorophenyl) -N-[(2S)-2-hydroxy-2-(3-pyridyl)ethyl]-N-(oxetan-3-ylmethyl)acetamide]: the IC50 fell in the range of 100 to 1000 nM.
As for `O=C(Cc1ccc(Cl)c(Cl)c1)N(C[C@@H](O)c1cccnc1)C1COC1` [compound 26, 2-(3,4-dichlorophenyl) -N-[(2S)-2-hydroxy-2-(3-pyridyl)ethyl]-N-(oxetan-3-yl)acetamide], the IC50 was 100 to 1000 nM.
Regarding `CC1(CN(C[C@@H](O)c2cccnc2)C(=O)Cc2ccc(Cl)c(Cl)c2)CC1` [compound 27, 2-(3,4-dichlorophenyl) -N-[(2S)-2-hydroxy-2-(3-pyridyl)ethyl]-N-[(1-methylcyclopropyl)methyl]acetamide], the IC50 was not above 100 nM.
With `COC(=O)N(CCc1ccc(C(F)(F)F)nc1)CC(O)c1cccnc1` (stereo not drawn) [compound 28, methyl N-[2-hydroxy-2-(3-pyridyl)ethyl]-N-[2-[6-(trifluoromethyl)-3-pyridyl]ethyl]carbamate] the figure was more than 1000 nM.
